Starred links: 1 amine or outer side, 2 acyl side, 3 side chain; linkers in the order of their positions; H or OH if unused. Non-standard residues stand in square brackets, D forms with d. No end group written: not given here. X1 = O=C([C@H](Cc1ccc(O)cc1)N(C[C@H](O)[C@@H](O)[C@H](O)[C@H](O)CO)[*:1])[*:2]; Hyp = O=C(O)[C@@H]1C[C@@H](O)CN1
Tests used:
[1] = test system: BRIN-BD11 cells; test: GIP-stimulated insulin release from BRIN-BD11 cells (antagonism); assay type: cell-based; settings: 5.6 mM glucose, native GIP 10^-7 M
Experimental: Tissue culture. […] Cells were maintained in sterile tissue culture flasks (Corning Glass Works, Sunderland, UK) at 37° C. in an atmosphere of 5% CO2 and 95% air using an LEEC incubator (Laboratory Technical Engineering, Nottingham, UK). Acute studies of insulin release. Insulin release from BRIN-BD11 cells was determined using cell monolayers ([…]. et al., 1996, Diabetes 45:1132-1140). Cells were harvested with the aid of trypsin/EDTA (Gibco), seeded into 24-multiwell plates (Nunc, Roskilde, Denmark) at a density of 1.0×10^5 cells per well, and allowed to attach overnight at 37° C.

[2] = test system: BRIN-BD11 cells; test: Acute tests for insulin secretion from BRIN-BD11 cells; assay type: cell-based
Experimental: Culture of insulin secreting cells. BRIN-BD11 cells were cultured in sterile tissue culture flasks (Corning, Glass Works, UK) using RPMI-1640 tissue culture medium containing 10% (v/v) foetal calf serum, 1% (v/v) antibiotics (100 U/ml penicillin, 0.1 mg/ml streptomycin) and 11.1 mM glucose. The cells were maintained at 37° C. in an atmosphere of 5% CO2 and 95% air using a LEEC incubator (Laboratory Technical Engineering, Nottingham, UK).
Acute tests for insulin secretion. Before experimentation, the cells were harvested from the surface of the tissue culture flasks with the aid of trypsin/EDTA (Gibco), seeded into 24-multiwell plates (Nunc, Roskilde, Denmark) at a density of 1.5×10^5 cells per well, and allowed to attach overnight at 37° C. Acute tests for insulin release were preceded by 40 minutes pre-incubation at 37° C. in 1.0 ml Krebs Ringer bicarbonate buffer (115 mM NaCl, 4.7 mM KCl, 1.28 mM CaCl2, 1.2 mM KH2PO4, 1.2 mM MgSO4, 10 mM NaHCO3, 5 g/l bovine serum albumin, pH 7.4) supplemented with 1.1 mM glucose. Test incubations were performed (n=12) at two glucose concentrations (5.6 mM and 16.7 mM) with a range of concentrations (10^−13 to 10^−8 M) of GIP or GIP analogues. After 20 minutes incubation, the buffer was removed from each well and aliquots (200 μl) were used for measurement of insulin by radioimmunoassay.

[3] = test system: Wistar rats; test: In vivo plasma glucose and insulin after i.p. glucose with peptide in Wistar rats; parameters: species or system rat
Experimental: In vivo biological activity of GIP and Tyr^1-glucitol GIP. Effects of GIP and Tyr^1-glucitol GIP on plasma glucose and insulin concentrations were examined using 10-12 week old male Wistar rats. The animals were housed individually in an air conditioned room and 22±2° C. with a 12 hour light/12 hour dark cycle. Drinking water and a standard rodent maintenance diet (Trouw Nutrition, Belfast, Northern Ireland) were supplied ad libitum. Food was withdrawn for an 18 hour period prior to intraperitoneal injection of glucose alone (18 mmol/kq body weight) or in combination with either GIP or Tyr^1-glucitol GIP (10 nmol/kg). Test solutions were administered in a final volume of 8 ml/kg body weight. Blood samples were collected at 0, 15, 30 and 60 minutes from the cut tip of the tail of conscious rats into chilled fluoride/heparin microcentrifuge tubes (Sarstedt, Numbrecht, Germany). Samples were centrifuged using a Beckman microcentrifuge for about 30 seconds at 13,000 g. Plasma samples were aliquoted and stored at −20° C. prior to glucose and insulin determinations. All animal studies were done in accordance with the Animals (Scientific Procedures) Act 1986.
Analyses. Plasma glucose was assayed by an automated glucose oxidase procedure using a Beckman Glucose Analyzer II [33]. Plasma insulin was determined by dextran charcoal radioimmunoassay as described previously. Incremental areas under plasma glucose and insulin area under the curve (AUC) were calculated using a computer program (CAREA) employing the trapezoidal rule with baseline subtraction. Results are expressed as mean±SEM and values were compared using the Student's unpaired t-test.

[4] = Degradation of GIP and analogues by human plasma (HPLC); assay type: in vitro ADME
Experimental: Degradation of GIP and Tyr^1-glucitol GIP by human plasma. […] […] The reactions were terminated by addition of 5 μl of TFA and the final volume adjusted to 1.0 ml using 0.1% v/v TFA/water. Samples were centrifuged (13,000 g, 5 minutes) and the supernatant applied to a C-18 Sep-Pak cartridge (Millipore-Waters) which was previously primed and washed with 0.1% (v/v) TFA/water. […] The volume was adjusted to 1.0 ml with 0.12% (v/v) TFA/water prior to HPLC purification.
(§1) HPLC analysis of degraded GIP and Tyr^1-glucitol GIP. […] Using 0.1% (v/v) TFA in 70% acetonitrile/H20, the concentration of acetonitrile in the eluting solvent was raised from 0% to 31.5% over 15 min, to 38.5% over 30 minutes and from 38.5% to 70% over 5 minutes, using linear gradients. The absorbance was monitored at 206 nm and peak areas evaluated using a model 2221 LKB integrator. Samples recovered manually were concentrated using a Speed-Vac concentrator.
(§2) Electrospray ionization-mass spectrometry (ESI-MS) was carried out as described in Example 2. Degradation of GIP and novel GIP analogues by DPP IV and human plasma was carried out as described in Example 2.

[5] = molecular target: T1, DPP IV (Sus scrofa, UniProt P22411); test: Degradation of GIP and analogues by DPP IV (HPLC); assay type: in vitro ADME
T1 construct: purchased Sigma (Poole, Dorset, UK)
T1 sequence (P22411 whole entry): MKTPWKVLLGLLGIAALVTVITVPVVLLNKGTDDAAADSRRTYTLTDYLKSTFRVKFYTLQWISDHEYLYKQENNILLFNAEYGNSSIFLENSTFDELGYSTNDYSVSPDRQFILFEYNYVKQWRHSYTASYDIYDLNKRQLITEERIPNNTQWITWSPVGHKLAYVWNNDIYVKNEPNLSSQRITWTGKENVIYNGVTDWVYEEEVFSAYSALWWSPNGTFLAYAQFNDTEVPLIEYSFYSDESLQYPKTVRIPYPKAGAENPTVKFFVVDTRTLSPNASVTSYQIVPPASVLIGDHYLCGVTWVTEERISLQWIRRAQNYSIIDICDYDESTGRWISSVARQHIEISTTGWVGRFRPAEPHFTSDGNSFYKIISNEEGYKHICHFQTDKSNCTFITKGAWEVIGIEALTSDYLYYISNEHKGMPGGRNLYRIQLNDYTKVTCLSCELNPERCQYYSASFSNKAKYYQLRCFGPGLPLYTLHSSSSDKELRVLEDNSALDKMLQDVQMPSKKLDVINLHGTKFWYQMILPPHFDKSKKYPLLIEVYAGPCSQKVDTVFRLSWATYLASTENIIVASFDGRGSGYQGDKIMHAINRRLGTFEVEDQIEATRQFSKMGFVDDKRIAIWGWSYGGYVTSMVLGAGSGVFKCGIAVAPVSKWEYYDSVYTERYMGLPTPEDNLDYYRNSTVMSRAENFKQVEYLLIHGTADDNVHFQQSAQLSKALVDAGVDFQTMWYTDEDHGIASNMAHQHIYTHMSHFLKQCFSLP
Experimental: Degradation of GIP and Tyr^1-glucitol GIP by DPP IV. HPLC-purified GIP or Tyr^1-glucitol GIP were incubated at 37° C. with DPP-IV (5 mU) for various time periods in a reaction mixture made up to 500 μl with 50 mmol/l triethanolamine-HCl, pH 7.8 (final peptide concentration 1 mmol/l). Enzymatic reactions were terminated after 0, 2, 4 and 12 hours by addition of 5 μl of 10% (v/v) TFA/water. Samples were made up to a final volume of 1.0 ml with 0.12% (v/v) TFA and stored at −20° C. prior to HPLC analysis.
as §1, §2

[6] = 10 nmol/kg i.p. with glucose 18 mmol/kg, rats

Substance: (Hyp^3)GIP: Glu^3-substituted form of GIP (hydroxyproline at position 3) (YA[Hyp]GTFISDYSIAMDKIHQQDFVNWLLAQKGKKNDWKHNITQ)
- inhibition of GIP-stimulated insulin secretion [1]: inhibited in a dose-dependent fashion

Substance: (Lys^3)GIP: Glu^3-substituted form of GIP (lysine at position 3) (YAKGTFISDYSIAMDKIHQQDFVNWLLAQKGKKNDWKHNITQ)
- inhibition of GIP-stimulated insulin secretion [1]: inhibited in a dose-dependent fashion

Substance: (Phe^3)GIP: Glu^3-substituted form of GIP (phenylalanine at position 3) (YAFGTFISDYSIAMDKIHQQDFVNWLLAQKGKKNDWKHNITQ)
- inhibition of GIP-stimulated insulin secretion [1]: inhibited in a dose-dependent fashion

Substance: (Trp^3)GIP: Glu^3-substituted form of GIP (tryptophan at position 3) (YAWGTFISDYSIAMDKIHQQDFVNWLLAQKGKKNDWKHNITQ)
- inhibition of GIP-stimulated insulin secretion [1]: inhibited in a dose-dependent fashion

Substance: (Tyr^3)GIP: Glu^3-substituted form of GIP (tyrosine at position 3) (YAYGTFISDYSIAMDKIHQQDFVNWLLAQKGKKNDWKHNITQ)
- inhibition of GIP-stimulated insulin secretion [1]: inhibited in a dose-dependent fashion

Substance: GIP(3-42): N-terminally truncated GIP, main DPP IV metabolite after removal of Tyr^1-Ala^2 (EGTFISDYSIAMDKIHQQDFVNWLLAQKGKKNDWKHNITQ; listed as Homo sapiens)
- inhibition of GIP-stimulated insulin secretion [1]: inhibited in a dose-dependent fashion

Substance: [X1]AEGTFISDYSIAMDKIHQQDFVNWLLAQKGKKNDWKHNITQ [Glycated GIP]
- insulin secretion from BRIN-BD11 cells ([2]; 5.6 and 16.7 mM glucose, 10^-13 to 10^-8 M peptide): considerably greater insulinotropic response compared with native peptide
- insulin-releasing potency relative to GIP ([2]; glucose-responsive clonal B-cells): several orders of magnitude greater than GIP
- overall insulin response (AUC) compared with glucose alone ([3]; 10 nmol/kg i.p. with glucose): significantly greater
- plasma insulin response (AUC) compared with GIP ([3]; 10 nmol/kg i.p. with glucose): significantly greater than after GIP
- increase of antihyperglycemic action relative to GIP, estimated from AUC [3, 6]: 38%
- increase of insulin-releasing action relative to GIP, estimated from AUC [3, 6]: 62%
- plasma glucose AUC compared to GIP ([3]; 10 nmol/kg i.p. with glucose, vs GIP): significantly lower
- plasma glucose concentrations and AUC compared with control group ([3]; 10 nmol/kg i.p. with glucose, vs glucose alone, 0-60 min): significantly lower
- % Intact peptide remaining after incubations with human plasma ([4]; 0 h): 100%
- effect of DPA on plasma degradation of the peptide ([4]; 24 hours in the presence of DPA): complete abolition of degradation
- % Intact peptide remaining after incubations with human plasma ([4]; 24 hours in the presence of DPA (diprotin A)): 100%
- degradation by human plasma ([4]; Example 2, 4 hours incubation): did not result in the formation of any detectable degradation fragments
- remaining at 2 h, 20 µg/ml ([4]; human, plasma, pH 7.8, 2 h, read-out: % Intact peptide remaining after incubations with human plasma): 100%
- remaining at 4 h, 20 µg/ml ([4]; human, plasma, pH 7.8, 4 h, read-out: % Intact peptide remaining after incubations with human plasma): 100%
- remaining at 8 h, 20 µg/ml ([4]; human, plasma, pH 7.8, 8 h, read-out: % Intact peptide remaining after incubations with human plasma): 100%
- remaining at 24 h, 20 µg/ml ([4]; human, plasma, pH 7.8, 24 h, read-out: % Intact peptide remaining after incubations with human plasma): 100%
- stability on incubation with DPP IV ([5]; Example 2, 2-12 hours incubation): remained almost completely intact
- resistance to in vitro degradation with DPP IV relative to native GIP ([5]; Example 3, summary of Table 1): more resistant than native GIP
- % Intact peptide remaining after time (h) ([5]; incubation with DPP IV, 0 h): 100%
- remaining at 2 h, 1 mmol/l ([5]; isolated enzyme dpp iv, pH 7.8, incubation with DPP IV, 2 h, read-out: % Intact peptide remaining after time (h)): 100%
- remaining at 4 h, 1 mmol/l ([5]; isolated enzyme dpp iv, pH 7.8, incubation with DPP IV, 4 h, read-out: % Intact peptide remaining after time (h)): 100%
- remaining at 8 h, 1 mmol/l ([5]; isolated enzyme dpp iv, pH 7.8, incubation with DPP IV, 8 h, read-out: % Intact peptide remaining after time (h)): 100%
- remaining at 24 h, 1 mmol/l ([5]; isolated enzyme dpp iv, pH 7.8, incubation with DPP IV, 24 h, read-out: % Intact peptide remaining after time (h)): 100%

Reference: patent US7875587B2, “Peptide analogues of GIP for treatment of diabetes, insulin resistance and obesity” (UUTECH Limited, priority 2004, dated 2011)
